Results taken from patent US20080038357A1, “Inhalation Powder Containing the CGRP antagonist BIBN4096 and Process for the Preparation Thereof” (priority 2002, published 2008).

Columns and labels:
[1] = Bioavailability after administration by inhalation; conditions: in vivo, inhaled or intranasal; administered by inhalation as spherically nanostructured microparticles; based on the fine fraction of the formulation (FPD, USP 24 Suppl. 2000)
[2] = Stability of the amorphous state of the microparticles; format: physicochemical; conditions: normal conditions (T<50° C., relative humidity <75%)
[3] = conventional preparations; cited from earlier work

bioavailability [1]: ~60% | stability of amorphous state [2]: stable in their amorphous state
SMILES: NCCCC[C@H](NC(=O)[C@@H](Cc1cc(Br)c(O)c(Br)c1)NC(=O)N1CCC(N2Cc3ccccc3NC2=O)CC1)C(=O)N1CCN(c2ccncc2)CC1 [BIBN4096, 1-[N^2-[3,5-dibromo-N-[[4-(3,4-dihydro-2(1H)-oxoquinazolin-3-yl)-1-piperidinyl]carbonyl]-D-tyrosyl]-L-lysyl]-4-(4-pyridinyl)-piperazine]
bioavailability by oral route [3]: only limited bioavailability by oral route
